The record followed here is US8470871B2, “Ligands that modulate RAR receptors” (Galderma Research & Development, priority 2004, dated 2013).

The structures appear in SMILES notation. Structures can show the parent of a compound that is named as a salt.

One assay addresses T1, RARalpha (Homo sapiens, UniProt P10276).
T1 sequence (P10276 183-417 limits assumed): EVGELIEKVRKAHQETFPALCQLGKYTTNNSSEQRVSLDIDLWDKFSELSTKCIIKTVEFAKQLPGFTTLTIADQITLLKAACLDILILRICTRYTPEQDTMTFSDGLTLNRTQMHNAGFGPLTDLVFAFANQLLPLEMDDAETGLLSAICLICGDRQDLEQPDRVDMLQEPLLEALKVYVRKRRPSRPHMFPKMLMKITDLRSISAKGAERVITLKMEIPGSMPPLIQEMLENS
Put plainly: Transactivation test (Kdapp), RARalpha. In kind it is cell-based. As to conditions: HeLa stable transfectants, luciferase reporter, crossed curves against reference agonist, Schild regression. How it is done:
(§1) The activation of receptors with an agonist (activator) in HeLa cells leads to the expression of a reporter gene, luciferase, which, in the presence of a substrate, generates light. The activation of the receptors may thus be measured by quantifying the luminescence produced after incubating the cells in the presence of a reference agonist. The inhibitory products displace the agonist from its site, thus preventing activation of the receptor. The activity is measured by quantifying the reduction in light produced. This measurement makes it possible to determine the inhibitory activity of the compounds according to the invention.
(§2) In this study, a constant is determined which is the affinity of the molecule for the receptor. Since this value can fluctuate depending on the basal activity and the expression of the receptor, it is referred to as the Kd apparent (KdApp).
(§3) To determine this constant, “crossed curves” of the test product against a reference agonist, 4-[2-(5,5,8,8-tetramethyl-5,6,7,8-tetrahydro-2-naphthyl)propenyl]benzoic acid, are performed in 96-well plates. The test product is used at 10 concentrations and the reference agonist at 7 concentrations. In each well, the cells are in contact with a concentration of the test product and a concentration of the reference agonist, 4-[2-(5,5,8,8-tetramethyl-5,6,7,8-tetrahydro-2-naphthyl)propenyl]benzoic acid. Measurements are also taken for the total agonist (4-[2-(5,5,8,8-tetramethyl-5,6,7,8-tetrahydro-2-naphthyl)propenyl]benzoic acid) and inverse agonist, 4-{(E)-3-[4-(4-tert-butylphenyl)-5,5,8,8-tetramethyl-5,6,7,8-tetrahydro-2-naphthyl]-3-oxopropenyl}benzoic acid, controls.
(§4) The HeLa cell lines used are stable transfectants containing the plasmids ERE-βGlob-Luc-SV-Neo (reporter gene) and RAR (α, β, γ) ER-DBD-puro. These cells are inoculated into 96-well plates at a rate of 10,000 cells per well in 100 μl of DMEM medium without phenol red, and supplemented with 10% defatted calf serum. The plates are then incubated at 37° C. and 7% CO2 for 4 hours.
(§5) The plates are then incubated for 18 hours at 37° C. and 7% CO2.
(§6) The culture medium is removed by turning over and 100 μl of a 1:1 PBS/luciferine mixture is added to each well. After 5 minutes, the plates are read using the luminescence reader.
In general terms: Reporter assays use an easily measured gene product as a stand-in for the process of interest.

A further assay addresses T2, RARbeta (Homo sapiens, UniProt P10826).
T2 sequence (P10826 183-417 limits assumed): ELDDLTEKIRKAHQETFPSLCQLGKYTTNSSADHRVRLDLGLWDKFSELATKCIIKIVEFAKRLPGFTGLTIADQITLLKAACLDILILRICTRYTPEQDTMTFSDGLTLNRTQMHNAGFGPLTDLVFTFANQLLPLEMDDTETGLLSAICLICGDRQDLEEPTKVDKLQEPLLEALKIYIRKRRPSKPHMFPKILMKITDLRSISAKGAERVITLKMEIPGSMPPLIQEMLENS
Put plainly: Transactivation test (Kdapp), RARbeta. In kind it is cell-based. Particulars: HeLa stable transfectants, luciferase reporter, crossed curves against reference agonist, Schild regression. How it is done:
as §1, §2, §3, §4, §5, §6

Turning to `CCN(CC)c1ccc(-c2cc(-c3ccc(C(=O)O)cc3)ccc2CCCO)cc1C(C)(C)C` [Example 33, 3″-tert-butyl-4″-diethylamino-4′-(3-hydroxypropyl)-[1,1′;3′,1″]terphenyl-4-carboxylic acid], the Kd at RARalpha worked out at 60 nM; at RARbeta, 8 nM.

With `CCN(C(C)=O)c1ccc(-c2cc(-c3ccc(C(=O)O)cc3)ccc2OCCCCO)cc1C(C)(C)C` [Example 5, 4″-(acetylethylamino)-3″-tert-butyl-4′-(4-hydroxybutoxy)-[1,1′;3′,1″]terphenyl-4-carboxylic acid], the Kd on RARalpha and on RARbeta was 8 nM each time.

In the case of `CCN(CC)c1ccc(-c2cc(-c3ccc(C(=O)O)cc3)ccc2CCCO)cc1C(C)(C)C` [Example 52, [3″-tert-butyl-4-carboxy-4′-(3-hydroxypropyl)-[1,1′;3′,1″]terphenyl-4″-yl]diethylamine hydrochloride], the Kd at RARalpha (hydrochloride) was determined as 30 nM; on RARbeta (hydrochloride) it was 2 nM.

Turning to `CCc1cc(-c2cc(-c3ccc(C(=O)O)cc3)ccc2OCCO)ccc1N(CC)CC` [Example 13, 4″-diethylamino-3″-ethyl-4′-(2-hydroxyethoxy)-[1,1′;3′,1″]terphenyl-4-carboxylic acid], the Kd worked out at 500 nM on RARalpha and 4 nM on RARbeta.

As for `CCN(C(C)=O)c1ccc(-c2cc(-c3ccc(C(=O)O)cc3)ccc2CCCNC2CC2)cc1C(C)(C)C` [Example 47, 4″-(acetylethylamino)-3″-tert-butyl-4′(3-cyclopropylaminopropyl)[1,1′;3′,1″]terphenyl-4-carboxylic acid], the Kd at RARbeta was 250 nM.

On to `CCN(CC)c1ccc(-c2cc(-c3ccc(C(=O)O)cc3)ccc2CC(O)CO)cc1C(C)(C)C` (centres unmarked) [Example 35, 3″-tert-butyl-4″-diethylamino-4′-(2,3-dihydroxypropyl)-[1,1′;3′,1″]terphenyl-4-carboxylic acid], for which the Kd on RARalpha is 4000 nM; on RARbeta it was 500 nM.

Regarding `CCN(C(C)=O)c1ccc(-c2cc(-c3ccc(C(=O)O)cc3)ccc2CCCO)cc1C(C)(C)C` [Example 37, 4″-(acetylethylamino)-3″-tert-butyl-4′-(3-hydroxypropyl)-[1,1′;3′,1″]terphenyl-4-carboxylic acid], the values for the Kd on RARalpha and on RARbeta were 250 nM and 120 nM, respectively.

For `CCN(CC)c1ccc(-c2cc(-c3ccc(C(=O)O)cc3)ccc2OCCCO)cc1C` [Example 17, 4″-diethylamino-4′-(3-hydroxypropoxy)-3″-methyl[1,1′;3′,1″]terphenyl-4-carboxylic acid], the Kd is 250 nM on RARalpha and 8 nM on RARbeta.

With `CCNc1ccc(-c2cc(-c3ccc(C(=O)O)cc3)ccc2OCCCO)cc1C(C)(C)C` [Example 54, 3″-tert-butyl-4″-ethylamino-4′-(3-hydroxypropoxy)-[1,1′;3′,1″]terphenyl-4-carboxylic acid], the values for the Kd on RARalpha and at RARbeta were 8 nM and 4 nM, respectively.
